According to ChEMBL document CHEMBL5724914, “Linking interpersonal differences in gut microbiota composition and drug biotransformation activity” (2024):

Legend:
[1] = The drug is tested on WLS-073 corresponding to human gut metagenome with ENA study accession number: PRJEB37062 and ENA sample accession number: ERS12561749 for biotransformation under anaerobic condition. The drug concentrations were measured over 9 timepoints collected between 0 and 24 hours of incubation by liquid-chromatography-coupled mass spectrometry (LC–MS); details: 2 µM
[2] = human gut metagenome, 24 h, 2 µM
[3] = human gut metagenome, 24 h, 2 µM; remark: listed apart in the source
[4] = human gut metagenome, 24 h, 2 µM; remark: listed apart in the source
[5] = The drug is tested on WLS-240 corresponding to human gut metagenome with ENA study accession number: PRJEB37062 and ENA sample accession number: ERS12561773 for biotransformation under anaerobic condition. The drug concentrations were measured over 9 timepoints collected between 0 and 24 hours of incubation by liquid-chromatography-coupled mass spectrometry (LC–MS); details: 2 µM
[6] = The drug is tested on WLS-006 corresponding to human gut metagenome with ENA study accession number: PRJEB37062 and ENA sample accession number: ERS12561741 for biotransformation under anaerobic condition. The drug concentrations were measured over 9 timepoints collected between 0 and 24 hours of incubation by liquid-chromatography-coupled mass spectrometry (LC–MS); details: 2 µM
[7] = The drug is tested on WLS-069 corresponding to human gut metagenome with ENA study accession number: PRJEB37062 and ENA sample accession number: ERS12561748 for biotransformation under anaerobic condition. The drug concentrations were measured over 9 timepoints collected between 0 and 24 hours of incubation by liquid-chromatography-coupled mass spectrometry (LC–MS); details: 2 µM
[8] = The drug is tested on WLS-170 corresponding to human gut metagenome with ENA study accession number: PRJEB37062 and ENA sample accession number: ERS12561762 for biotransformation under anaerobic condition. The drug concentrations were measured over 9 timepoints collected between 0 and 24 hours of incubation by liquid-chromatography-coupled mass spectrometry (LC–MS); details: 2 µM
[9] = human gut metagenome, 24 h, 2 µM; remark: listed apart in the source
Further: call rule not given here.

Compound | Bacterial Biotransformation [1] | Bacterial Biotransformation [2] | Bacterial Biotransformation [3] | Bacterial Biotransformation [4] | Bacterial Biotransformation [5] | Bacterial Biotransformation [6] | Bacterial Biotransformation [7] | Bacterial Biotransformation [8] | Bacterial Biotransformation [9]
CC(C)NCC(O)COc1ccc(COCCOC(C)C)cc1.CC(C)NCC(O)COc1ccc(COCCOC(C)C)cc1.O=C(O)/C=C/C(=O)O (centres undefined) [BISOPROLOL FUMARATE] | Compound NOT metabolized | Compound metabolized | Compound metabolized | Compound NOT metabolized | Compound metabolized | Compound metabolized | Compound NOT metabolized | Compound metabolized | Compound NOT metabolized
CCCCCOC(=O)Nc1nc(=O)n([C@@H]2O[C@H](C)[C@@H](O)[C@H]2O)cc1F [CAPECITABINE] | Compound metabolized | Compound metabolized | Compound metabolized | Compound metabolized | Compound metabolized | Compound metabolized | Compound metabolized | Compound metabolized | Compound metabolized
Cc1ccc(-c2cc(C(F)(F)F)nn2-c2ccc(S(N)(=O)=O)cc2)cc1 [CELECOXIB] | Compound metabolized | Compound metabolized | Compound NOT metabolized | Compound NOT metabolized | Compound metabolized | Compound metabolized | Compound metabolized | Compound NOT metabolized | Compound NOT metabolized
CN1C(=O)CCS(=O)(=O)C1c1ccc(Cl)cc1 (centres undefined) [CHLORMEZANONE] | Compound NOT metabolized | Compound NOT metabolized | Compound NOT metabolized | Compound NOT metabolized | Compound metabolized | Compound metabolized | Compound NOT metabolized | Compound metabolized | Compound NOT metabolized
Clc1ccc(Cn2c(CN3CCCC3)nc3ccccc32)cc1 [CLEMIZOLE] | Compound NOT metabolized | Compound NOT metabolized | Compound NOT metabolized | Compound metabolized | Compound metabolized | Compound metabolized | Compound metabolized | Compound metabolized | Compound NOT metabolized
CN1CCN(C2=Nc3cc(Cl)ccc3Nc3ccccc32)CC1 [CLOZAPINE] | Compound NOT metabolized | Compound NOT metabolized | Compound NOT metabolized | Compound metabolized | Compound metabolized | Compound NOT metabolized | Compound NOT metabolized | Compound metabolized | Compound NOT metabolized
